Assay results reported in patent US9120787B2, “HIV replication inhibitors” (priority 2011, dated 2015).
Read-outs that look alike come from different tables or passages of the source.

Legend:
HIV-1Ba-L [1] = experiment: Inhibition of virus replication in MAGI-CCR5 cells (β-galactosidase reporter); assay type: cell-based
Description: (§1) The anti-viral activity of dihydropyrimidines was shown by inhibition of virus replication in MAGI-CCR5 cells. MAGI-CCR5 cells are derived from HeLa-CD4-LTR-β-galactosidase cells. The cells have been engineered to express high levels of CD4 and CCR5 and contain one copy of the HIV-1 LTR promoter driving expression of the β-galactosidase gene upon HIV-1 Tat transactivation. On the day preceding the assay, the cells were plated at 1.0×10^4 cells per well and maintained at 37° C. and 5% CO2 in a humidified incubator. Total cell count and viability was visually assessed using a hemacytometer and trypan blue exclusion.
Compounds were evaluated at six concentrations (triplicate wells/concentration). On the day of assay setup, compound dilutions were prepared at two-times (2×) the final concentrations. Media was decanted and wells were replenished with 50 μl of 2× compounds, followed by the addition of 50 μl of diluted virus. Identical uninfected assays were prepared for parallel cytotoxicity testing.
Evaluation of Dihydropyrimidines vs. HIV-1Ba-L in MAGI-CCR5 Cells

[2] = Cytotoxicity by MTS staining in uninfected MAGI-CCR5 cells; assay type: cell-based; settings: human, read-out: TC50
Description: as §1, with “exclusion. Compounds were evaluated at six concentrations (triplicate wells/concentration). On the day of assay setup, compound dilutions were prepared at two-times (2×) the final concentrations. Media was decanted and wells were replenished with 50 μl of 2× compounds, followed by the addition of 50 μl of diluted virus. Identical uninfected assays were prepared for parallel cytotoxicity testing.” for “exclusion.”

HIV-1Ba-L [3] = experiment: HIV-1Ba-L replication in PBMCs (supernatant RT end-point)
Description: Evaluation of Dihydropyrimidines vs. HIV-1Ba-L in Peripheral Blood Mononuclear Cells (PBMCs)
Cultures of pooled phytohemagglutinin stimulated peripheral blood mononuclear cells (PBMC) were seeded into a 96-well plate at plating density of 5×10^4 cells/well. Compounds were serially diluted into media in ½-log increments using a high test of […] and […] of each concentration (nine total concentrations). Cells were infected with HIV strains HIV-1Ba-L and NL4-3 at an MOI=0.1. The PBMCs were cultured for seven days in an humidified incubator maintained at 37° C., 5% CO2 atmosphere. At the assay end-point, the supernatant was collected and analyzed for reverse transcriptase activity. For the RT assay, tritiated thymidine triphosphate (3H-TTP, 80 Ci/mmol) was diluted 1:1 dH2O:Ethanol at 1 mCi/ml. Poly rA:oligo dT template:primer was prepared as a stock solution by combining 150 μl poly rA (20 mg/ml) with 0.5 mL oligo dT (20 units/ml) and 5.35 ml sterile dH2O followed by aliquoting (1.0 ml) and storage at −20° C. The RT reaction buffer contained of 125 ml 1.0 M EGTA, 125 ml dH2O, 125 ml 20% Triton X100, 50 ml 1.0 M Tris (pH 7.4), 50 ml 1.0 M DTT, and 40 ml 1.0 M MgCl2. The final reaction mixture was prepared by combining 1 part 3H-TTP, 4 parts dH2O, 2.5 parts poly rA:oligo dT stock and 2.5 parts reaction buffer. To each well, ten microliters of the reaction mixture and 15 μl of virus containing supernatant were added. The plates were incubated at 37° C. for 60 minutes. Following incubation, the reaction volume was spotted onto DE81 filter-mats, washed 5 times for 5 minutes each in a 5% sodium phosphate buffer or 2×SSC. […] were washed 2 times for 1 minute each in distilled water, 2 times for 1 minute each in 70% ethanol, and then dried. Incorporated radioactivity (counts per minute, CPM) was quantified using standard liquid scintillation techniques.

[4] = Cytotoxicity by MTS staining in PBMCs; assay type: cell-based; settings: human, peripheral blood mononuclear cells (PBMC), read-out: TC50
Description: Cytotoxicity was assessed by MTS staining. At assay end-point, PBMC were stained with the addition of […] of the soluble tetrazolium-based dye MTS to determine cell viability and quantify compound toxicity. The plates were incubated 4 to 6 hrs at 37° C. Following incubation, the activity was assessed by reading absorbance values at 490/650 nm.

HIV-1 K103N, Y181C (A17) = HIV-1 K103N, Y181C (A17) replication in PBMCs; assay type: cell-based
Text: In another embodiment of the present disclosure compounds are provided which inhibit the replication of HIV strains resistant to NNRTIs. Compounds in this disclosure inhibit, A17, an HIV-1 virus with mutations in the RT non-nucleoside binding pocket, K103N and Y181C, in a dose-dependent susceptibility testing manner.
The asparagine variation at residue 103 and the cysteine variation at residue 181 are known to inhibit the activity of the NNRTI's.
Evaluation Dihydropyrimidines vs. HIV-1Ba-L and HIV-1 K103N, Y181C in PBMCs

[5] = Human immunodeficiency virus 1, HIV-1Ba-L in MAGI-CCR5 cells, 48 hours, β-galactosidase reporter expression, read-out: IC50
[6] = Human immunodeficiency virus 1, PBMC, 168 h

SMILES | TI (TC50/IC50) (HIV-1Ba-L [1]; HIV-1Ba-L in MAGI-CCR5 cells) | IC50 (HIV-1Ba-L [1]; [5]) [µM] | CC50 at 48 h [2] [µM] | TI (TC50/IC50) (HIV-1Ba-L [3]; HIV-1Ba-L in PBMCs) | IC50 (HIV-1Ba-L [3]; Human immunodeficiency virus 1, BAL, PBMC) [µM] | IC50 (HIV-1Ba-L [3]; [6]) [µM] | TI (TC50/IC50) (HIV-1Ba-L [3]; Virus Ba-L in PBMCs (Ba-L vs A17 comparison)) | CC50 at 7 days ([4]; A17 line of the table) [µM] | CC50 at 7 days ([4]; Ba-L line of the table) [µM] | CC50 at 7 days ([4]; MTS staining) [µM] | IC50 (HIV-1 K103N, Y181C (A17); Human immunodeficiency virus 1, PBMC) [µM] | TI (TC50/IC50) (HIV-1 K103N, Y181C (A17); Virus A17 (K103N, Y181C) in PBMCs) | IC50 (HIV-1Ba-L [1]; Human immunodeficiency virus 1, MAGI-CCR5, 48 h) [µM]
CC1=C(c2nc(-c3ccc(C#N)cc3)cs2)C(c2cc3ccccc3[nH]2)NC(=O)N1 (stereo not drawn) [Example 10] | C (C < 50.0 to 10.0) | 1 to 5 | < 50 | C (C < 50.0-10.0) | 1 to 5 | 1 to 5 | B (B < 100.0-50.0) | ≥ 100 | ≥ 100 | 50 to 100 | 5 to 100 | D (D < 10.0) | –
CC1=C(c2nc(-c3cccc(O)c3)cs2)C(c2cccc(O)c2)NC(=O)N1 (stereo not drawn) [Example 38] | D (D < 10.0) | 5 to 100 | 50 to 100 | D (D < 10.0) | – | 5 to 100 | – | – | – | 50 to 100 | – | – | –
COc1ccc(-c2csc(C3=C(C)NC(=O)NC3c3cc(Br)cs3)n2)cc1 (stereo not drawn) [Example 40] | D (D < 10.0) | > 100 | ≥ 100 | D (D < 10.0) | – | 5 to 100 | – | – | – | ≥ 100 | – | – | –
COc1ccc(-c2csc(C3=C(C)NC(=O)NC3c3ccc(-c4ccccc4)cc3)n2)cc1 (stereo not drawn) [Example 43] | D (D < 10.0) | > 100 | ≥ 100 | D (D < 10.0) | – | 5 to 100 | – | – | – | ≥ 100 | – | – | –
CC1=C(c2nc(-c3ccc(F)cc3)cs2)C(c2cccc(O)c2)NC(=O)N1 (stereo not drawn) [Example 44] | C (C < 50.0 to 10.0) | 1 to 5 | 50 to 100 | D (D < 10.0) | – | 5 to 100 | – | – | – | 50 to 100 | – | – | –
CC1=C(c2nc(-c3ccc(C#N)cc3)cs2)C(c2ccc(O)cc2)NC(=O)N1 (stereo not drawn) [Example 48] | A (A = TI (TC50/IC50) ≧ 100.0) | < 1 | ≥ 100 | A (A = TI (TC50/IC50) ≧100.0) | – | < 1 | – | – | – | ≥ 100 | – | – | –
CC1=C(c2nc(-c3ccc(C#N)cc3)cs2)C(c2cccc(F)c2)NC(=O)N1 (stereo not drawn) [Example 50] | C (C < 50.0 to 10.0) | 1 to 5 | ≥ 100 | A (A = TI (TC50/IC50) ≧100.0) | – | < 1 | – | – | – | ≥ 100 | – | – | –
CC1=C(c2nc(-c3ccc(C#N)cc3)cs2)C(c2ccc(Oc3ccccc3)cc2)NC(=O)N1 (stereo not drawn) [Example 59] | A (A = TI (TC50/IC50) ≧ 100.0) | < 1 | ≥ 100 | A (A = TI (TC50/IC50) ≧100.0) | – | < 1 | – | – | – | ≥ 100 | – | – | –
COc1ccc(C2NC(=O)NC(C)=C2c2nc(-c3ccc(C#N)cc3)cs2)cc1 (stereo not drawn) [Example 64] | B (B < 100.0-50.0) | < 1 | < 50 | A (A = TI (TC50/IC50) ≧100.0) | – | < 1 | – | – | – | ≥ 100 | – | – | –
CC1=C(c2nc(-c3cccc(C#N)c3)cs2)C(c2cccc(O)c2)NC(=O)N1C (stereo not drawn) [Example 68] | D (D < 10.0) | 5 to 100 | ≥ 100 | D (D < 10.0) | – | 5 to 100 | – | – | – | 50 to 100 | – | – | –
CC1=C(c2nc(-c3ccc(C#N)cc3)cs2)C(c2cccc(O)c2)NC(=O)N1C (stereo not drawn) [Example 69] | B (B < 100.0-50.0) | 1 to 5 | ≥ 100 | C (C < 50.0-10.0) | – | 1 to 5 | – | – | – | ≥ 100 | – | – | –
CC1=C(c2nc(-c3ccc(C#N)cc3)cs2)C(c2cccc(C(F)(F)F)c2)NC(=O)N1 (stereo not drawn) [Example 71] | B (B < 100.0-50.0) | 1 to 5 | ≥ 100 | C (C < 50.0-10.0) | – | 5 to 100 | – | – | – | ≥ 100 | – | – | –
CC1=C(c2nc(-c3ccc(Cl)cc3)cs2)C(c2cccc(O)c2)NC(=O)N1 (stereo not drawn) [Example 74] | C (C < 50.0 to 10.0) | 1 to 5 | 50 to 100 | C (C < 50.0-10.0) | – | 1 to 5 | – | – | – | 50 to 100 | – | – | –
CC1=C(c2nc(-c3ccc(C#N)cc3)cs2)C(c2cc(O)cc(O)c2)NC(=O)N1 (stereo not drawn) [Example 80] | D (D < 10.0) | > 100 | ≥ 100 | B (B < 100.0-50.0) | – | 1 to 5 | – | – | – | ≥ 100 | – | – | –
CC1=C(c2nc(-c3ccc(C#N)cc3)cs2)C(c2ccc(OCc3ccccc3)c(Cl)c2)NC(=O)N1 (stereo not drawn) [Example 81] | B (B < 100.0-50.0) | 1 to 5 | ≥ 100 | A (A = TI (TC50/IC50) ≧100.0) | – | < 1 | – | – | – | ≥ 100 | – | – | –
CC1=C(c2nc(-c3ccc(C#N)cc3)cs2)C(c2ccc(Oc3ccccc3)nc2)NC(=O)N1 (stereo not drawn) [Example 90] | A (A = TI (TC50/IC50) ≧ 100.0) | < 1 | ≥ 100 | C (C < 50.0-10.0) | – | 1 to 5 | – | – | – | 50 to 100 | – | – | –
CC1=C(c2nc(-c3ccc(C#N)cc3)cs2)C(c2ccc(N(C)C)nc2)NC(=O)N1 (stereo not drawn) [Example 91] | A (A = TI (TC50/IC50) ≧ 100.0) | < 1 | ≥ 100 | B (B < 100.0-50.0) | – | 1 to 5 | – | – | – | ≥ 100 | – | – | –
CC1=C(c2nc(-c3ccc(C#N)cc3)cs2)C(c2ccc(Cl)nc2Cl)NC(=O)N1 (stereo not drawn) [Example 92] | A (A = TI (TC50/IC50) ≧ 100.0) | < 1 | ≥ 100 | C (C < 50.0-10.0) | – | 1 to 5 | – | – | – | 50 to 100 | – | – | –
Cc1nnc(C(=O)NC(C)(C)c2nc(C(=O)NCc3ccc(F)cc3)c(O)c(=O)n2C)o1 [Raltegravir, reference compound] | >3.85 | – | > 100 | >371.0 | – | 0.003 | – | – | – | > 1 | – | – | 0.026
